Data as given in US11000033B2, “Ketone or oxime compound, and herbicide” (NISSAN CHEMICAL CORPORATION, priority 2014, dated 2021).

What was measured:
Assay type in all cases: in vivo
Scirpus juncoides = test: Test Example 1: herbicidal activity, application before weed generation in submerged conditions (symbol B); settings: application herbicide amount 320 g/ha
Procedure, shortened: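 Compound emulsion was diluted to a set herbicide amount and applied to the water surface on the sowing day, into submerged (4 cm) alluvial-soil pots sown with mixed weed seeds and transplanted 2.5-leaf rice. Pots were held in a 25–30 °C greenhouse, and weeds were scored 0–5 by herbicidal ratio after 3 weeks.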

Veronica persica = test: Test Example 5: herbicidal effect by foliage application, plastic box (symbol R); settings: 320 g/ha, 3 weeks after application
Procedure, shortened: (§1)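 Seeds were sown in sterilized diluvial soil, covered with about 1.5 cm of soil and grown 14 days in a greenhouse at 25° C. to 30° C. An emulsifiable formulation diluted in water to a set rate was sprayed over foliage, and injury was scored 3 weeks later.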

Apera spica-venti = test: Test Example 5: herbicidal effect by foliage application, plastic box (symbol L); settings: 320 g/ha, 3 weeks after application
Procedure, shortened: as §1

[1] = tested on: Echinochloa crus-galli var. crus-galli; test: Test Example 4: herbicidal effect by soil treatment (symbol H); settings: application herbicide amount 320 g/ha
Procedure, shortened: (§2)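 Seeds were sown in sterilized diluvial soil, covered with about 1.5 cm of soil, and the soil surface was sprayed with a water-diluted emulsion of the compound at a predetermined rate. Plants grew in a greenhouse at 25° C. to 30° C.; effects were scored visually 3 weeks after application.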

[2] = tested on: Echinochloa crus-galli var. crus-galli; test: Test Example 3: herbicidal effect by foliage application, Wagner pot (symbol H); settings: application herbicide amount 320 g/ha
Procedure, shortened: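 Steps: fill pot with alluvial soil; add water to 0.1–0.5 cm depth; sow weed and rice seed; grow 14 days at 25–30 °C; spray diluted emulsion over the leaves; rate effect after 3 weeks.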

wheat [3] = test: Test Example 4: effect on crop by soil treatment (symbol e); settings: application herbicide amount 320 g/ha
Procedure, shortened: (§3)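 The test used sterilized diluvial soil. Seed was set down in spots and overlaid with about 1.5 cm of soil before growth in a greenhouse kept at 25° C. to 30° C.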

corn [4] = test: Test Example 5: effect on crop by foliage application, plastic box (symbol c); settings: 320 g/ha, 3 weeks after application
Procedure, shortened: (§4)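 In a plastic box 7 cm deep filled with sterilized diluvial soil, seeds of crops and weeds such as Digitaria ciliaris, Avena fatua and Amaranthus retroflexus are sown in spots and covered with about 1.5 cm of soil before greenhouse growth at 25–30° C.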

Digitaria ciliaris = test: Test Example 5: herbicidal effect by foliage application, plastic box (symbol F); settings: 320 g/ha, 3 weeks after application
Procedure, shortened: as §1

Lolium multiflorum Lam. = test: Test Example 4: herbicidal effect by soil treatment (symbol K); settings: application herbicide amount 320 g/ha
Procedure, shortened: as §2

rapeseed = test: Test Example 5: effect on crop by foliage application, plastic box (symbol g); settings: 320 g/ha, 3 weeks after application
Procedure, shortened: as §4

wheat [5] = test: Test Example 5: effect on crop by foliage application, plastic box (symbol e); settings: 320 g/ha, 3 weeks after application
Procedure, shortened: as §4

soybean = test: Test Example 5: effect on crop by foliage application, plastic box (symbol d); settings: 320 g/ha, 3 weeks after application
Procedure, shortened: as §4

Alopecurus myosuroides = test: Test Example 4: herbicidal effect by soil treatment (symbol J); settings: application herbicide amount 320 g/ha
Procedure, shortened: as §2

rice = test: Test Example 4: effect on crop by soil treatment (symbol b); settings: application herbicide amount 320 g/ha
Procedure, shortened: as §3

corn [6] = test: Test Example 4: effect on crop by soil treatment (symbol c); settings: application herbicide amount 320 g/ha
Procedure, shortened: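 Seeds were sown in spots on sterilized diluvial soil in a plastic box and covered with about 1.5 cm of soil. Plants were then grown in a greenhouse at 25° C. to 30° C.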

Setaria viridis = test: Test Example 4: herbicidal effect by soil treatment (symbol G); settings: application herbicide amount 320 g/ha
Procedure, shortened: as §2

| Structure (SMILES) | Herbicidal effect grade, B: Scirpus juncoides (Scirpus juncoides) | R: Veronica persica, herbicidal effect grade (Veronica persica) | L: Apera spica-venti, herbicidal effect grade (Apera spica-venti) | H (Echinochloa crus-galli var. crus-galli) herbicidal effect grade [1] | herbicidal effect on H (Echinochloa crus-galli var. crus-galli), grade 0-5 [2] | e (wheat) effect on crop grade (wheat [3]) | c: corn, effect on crop grade (corn [4]) | F: Digitaria ciliaris, herbicidal effect grade (Digitaria ciliaris) | K (Lolium multiflorum Lam.) herbicidal effect grade (Lolium multiflorum Lam.) | g: rapeseed, effect on crop grade (rapeseed) | e: wheat, effect on crop grade (wheat [5]) | d: soybean, effect on crop grade (soybean) | J (Alopecurus myosuroides) herbicidal effect grade (Alopecurus myosuroides) | b (directly sowed rice plant) effect on crop grade (rice) | c (corn) effect on crop grade (corn [6]) | G (Setaria viridis) herbicidal effect grade (Setaria viridis) |
| --- | --- | --- | --- | --- | --- | --- | --- | --- | --- | --- | --- | --- | --- | --- | --- | --- |
| CON=C(C)CC1CC(OC(=O)COc2ccccc2)=C(c2c(C)cc(C)cc2C)C1=O (stereo not shown) [1-043] | 5 (Herbicidal ratio of 90% or more (almost completely withered)) | 2 (Herbicidal ratio of 20% or higher and lower than 40%) | 5 (Herbicidal ratio of 90% or more (almost completely withered)) | 5 (Herbicidal ratio of 90% or more (almost completely withered)) | 5 (Herbicidal ratio of 90% or more (almost completely withered)) | 4 (Herbicidal ratio of 70% or higher and lower than 90%) | 5 (Herbicidal ratio of 90% or more (almost completely withered)) | 5 (Herbicidal ratio of 90% or more (almost completely withered)) | 5 (Herbicidal ratio of 90% or more (almost completely withered)) | 4 (Herbicidal ratio of 70% or higher and lower than 90%) | 5 (Herbicidal ratio of 90% or more (almost completely withered)) | 4 (Herbicidal ratio of 70% or higher and lower than 90%) | 5 (Herbicidal ratio of 90% or more (almost completely withered)) | 5 (Herbicidal ratio of 90% or more (almost completely withered)) | 4 (Herbicidal ratio of 70% or higher and lower than 90%) | 5 (Herbicidal ratio of 90% or more (almost completely withered)) |
| CON=CC(C)(C)C1CC(O)=C(c2c(C)cc(C)cc2C)C1=O (stereo not shown) [1-030] | 0 (Herbicidal ratio of 5% or lower (almost no effect)) | 0 (Herbicidal ratio of 5% or lower (almost no effect)) | 4 (Herbicidal ratio of 70% or higher and lower than 90%) | 2 (Herbicidal ratio of 20% or higher and lower than 40%) | 5 (Herbicidal ratio of 90% or more (almost completely withered)) | 0 (Herbicidal ratio of 5% or lower (almost no effect)) | 1 (Herbicidal ratio of 5% or higher and lower than 20%) | 4 (Herbicidal ratio of 70% or higher and lower than 90%) | 5 (Herbicidal ratio of 90% or more (almost completely withered)) | 3 (Herbicidal ratio of 40% or higher and lower than 70%) | 0 (Herbicidal ratio of 5% or lower (almost no effect)) | 0 (Herbicidal ratio of 5% or lower (almost no effect)) | 3 (Herbicidal ratio of 40% or higher and lower than 70%) | 4 (Herbicidal ratio of 70% or higher and lower than 90%) | 0 (Herbicidal ratio of 5% or lower (almost no effect)) | 2 (Herbicidal ratio of 20% or higher and lower than 40%) |
| CON=C(CC1CC(OC(=O)COc2ccccc2)=C(c2c(C)cc(C)cc2C)C1=O)C1CC1 (stereo not shown) [1-063] | 3 (Herbicidal ratio of 40% or higher and lower than 70%) | 4 (Herbicidal ratio of 70% or higher and lower than 90%) | 5 (Herbicidal ratio of 90% or more (almost completely withered)) | 5 (Herbicidal ratio of 90% or more (almost completely withered)) | 5 (Herbicidal ratio of 90% or more (almost completely withered)) | 3 (Herbicidal ratio of 40% or higher and lower than 70%) | 3 (Herbicidal ratio of 40% or higher and lower than 70%) | 1 (Herbicidal ratio of 5% or higher and lower than 20%) | 5 (Herbicidal ratio of 90% or more (almost completely withered)) | 4 (Herbicidal ratio of 70% or higher and lower than 90%) | 4 (Herbicidal ratio of 70% or higher and lower than 90%) | 3 (Herbicidal ratio of 40% or higher and lower than 70%) | 5 (Herbicidal ratio of 90% or more (almost completely withered)) | 5 (Herbicidal ratio of 90% or more (almost completely withered)) | 4 (Herbicidal ratio of 70% or higher and lower than 90%) | 5 (Herbicidal ratio of 90% or more (almost completely withered)) |
| CON=C(C)CC1CC(OC(=O)COc2ccc(Cl)cc2)=C(c2c(C)cc(C)cc2C)C1=O (stereo not shown) [1-044] | 5 (Herbicidal ratio of 90% or more (almost completely withered)) | 0 (Herbicidal ratio of 5% or lower (almost no effect)) | 5 (Herbicidal ratio of 90% or more (almost completely withered)) | 5 (Herbicidal ratio of 90% or more (almost completely withered)) | 5 (Herbicidal ratio of 90% or more (almost completely withered)) | 2 (Herbicidal ratio of 20% or higher and lower than 40%) | 4 (Herbicidal ratio of 70% or higher and lower than 90%) | 5 (Herbicidal ratio of 90% or more (almost completely withered)) | 5 (Herbicidal ratio of 90% or more (almost completely withered)) | 4 (Herbicidal ratio of 70% or higher and lower than 90%) | 5 (Herbicidal ratio of 90% or more (almost completely withered)) | 4 (Herbicidal ratio of 70% or higher and lower than 90%) | 5 (Herbicidal ratio of 90% or more (almost completely withered)) | 5 (Herbicidal ratio of 90% or more (almost completely withered)) | 4 (Herbicidal ratio of 70% or higher and lower than 90%) | 5 (Herbicidal ratio of 90% or more (almost completely withered)) |
